Results as given in patent US20080031866A1, “METHOD FOR MODULATING THE PHARMACOKINETICS AND METABOLISM OF A THERAPEUTIC AGENT” (priority 2006, published 2008).

What was measured:
[1] = IV pharmacokinetics of Compound 1 and its glucuronides in rats; format: in vivo, rat
Protocol: Two separate IV studies were carried out using two separate lots of animals. IV-A was run on the same lot of animals as the oral gavage study and IV-B was run on the same lot of animals as the intraduodenal and intra-colonic studies.
For the IV dosing solutions (IV), Compound 1 was prepared by addition to DI water containing 20% hydroxypropyl β-cyclodextran by weight.
For the IV and oral gavage dosing (sampling at jugular and portal vein), young adult male Sprague Dawley rats weighing 250-400 g were purchased from Hilltop Lab Animals Inc. All rat experiments were conducted under approved animal protocols. The rats for the oral gavage dosing were catheterized at Hilltop Lab Animals Inc, had two chronic catheters for sampling: jugular and portal, were housed in cages of Culex™ Automated Blood Sampler (ABS) and blood samples were collected simultaneously via both cannula and were controlled by the Culex™ ABS control software.
(§1) A quantitative method for determining the amount of (6,7-dimethoxy-2,4-dihydro-indeno[1,2-c]pyrazol-3-yl)-(3-fluoro-phenyl)-amine Compound 1 and its major metabolites, glucuronide A (Cpd 1-GluA) and glucuronide B (Cpd 1-GluB) (see Scheme A) in rat plasma was developed using phenacetin as an internal standard. [drawing 1]
(§2) The two glucuronide conjugates were prepared and purified to permit accurate quantification of the levels of intact parent Compound 1 versus Cpd 1-GluA and Cpd 1-GluB. Each standard curve for Compound 1, Cpd 1-GluA, and Cpd 1-GluB generated from rat plasma included ten concentration levels. […] The quantitative procedure for each sample included: sample preparation, HPLC separation and mass spectrometry detection.
(§3) The rat plasma was prepared using protein precipitation techniques. Reference standards and quality control samples in rat plasma for Compound 1 were transferred to a 96 deep-well plate. The precipitation solution contained 100 ng/ml of internal standard in acetonitrile. 300 μl of precipitation solution were added to 100 μl of each standard, quality control and plasma sample. Samples were vortexed for 10 mins, then centrifuged at 4500 RPM for 10 mins. 10 μl of each sample were injected for LC/MS/MS analysis.
(§4) The HPLC column chosen for the bioanalysis was purchased from Thermo Electron (Hypersil BetaBasic C18, 5 cm×2.1 mm). The eluting solvents were composed of Solvent A: 0.1% formic acid in H2O and Solvent B: 0.1% formic acid in acetonitrile. A step gradient was used and flow rate was 300 μl/min. The total run time was 3.2 mins. Solvent B was increased from 35% at 0 min to 75% at 2.1 mins and decreased back to 35% at 2.2 mins. The retention times for Compound 1, phenacetin, Cpd 1-GluA and Cpd 1-GluB were 1.1 min, 0.9 min, 1.3 min, and 1.6 min, respectively.
API3000 with a Turbo Ionspray interface from Applied Biosystems was used for the detection of Compound 1, the internal standard and major metabolites. Electrospray ionization was performed in the positive ion mode heated nebulizer with a temperature of 300° C. LC/MS/MS chromatograms were acquired in MRM (multiple reaction mode). The MRM transitions for Compound 1, the internal standard, Cpd 1-GluA and Cpd 1-GluB were from 326.3 to 190.6, 181.1 to 110.3, 502.2 to 368.3 and 502.2 to 326.4, respectively.
Pharmacokinetic analysis of the plasma concentration data was performed to determine the maximum plasma concentration (Cmax) for the oral dose, and the concentration at zero time (C0; Compound 1 only) by the extrapolation of drug concentrations back to the time of i.v. dosing, the time to maximum plasma concentration (Tmax) following the oral dose, area under the plasma concentration vs. time curve (AUC), terminal half-life (t1/2), plasma clearance (CL/F; Compound 1 only), and volume of distribution at steady state (Vdss; Compound 1 only) for the i.v. dose, using the WinNonlin (Version 3.1, Pharsight, Palo Alto, Calif.) validated computer program.

[2] = Intraduodenal dosing with and without β-glucuronidase, catheterized rat; format: in vivo; conditions: for Increase in AUC with β-glucuronidase: with vs no enzyme; for AUC / Cmax / concentration at 0 h / concentration at 0.25 h / concentration at 0.5 h / concentration at 1 h / concentration at 2 h / concentration at 3 h / concentration at 4 h / concentration at 5 h / concentration at 6 h / AUC average ± standard deviation 0 to 6 hours / Cmax average ± standard deviation: 10 mg/kg, rats N=6; for AUC: read-out: AUC average ± standard deviation 0 to 6 hours; for Cmax: read-out: Cmax average ± standard deviation; for concentration at 0 h / concentration at 0.25 h / concentration at 0.5 h / concentration at 1 h / concentration at 2 h / concentration at 3 h / concentration at 4 h / concentration at 5 h / concentration at 6 h: other: intraduodenal
Protocol: A catheterized rat model was used in which the agent alone or agent and β-glucuronidase enzyme was administered intraduodenally or intracolonically. The intraduodenal and intracolonic dosing was intended to prevent the potential for loss of enzymatic activity when orally dosing the β-glucuronidase (e.g. by degradation in the stomach). […]
For the oral gavage dosing, Compound 1 was prepared in neat PEG-400. For the intraduodenal and intracolonic dosing solutions, Compound 1 was added to neat Tween 80, the mixture was sonicated for thirty minutes at 45° C. until Compound 1 was completely dissolved and then deionized (DI) water was added to form a solution consisting of 20% Tween 80 and 80% DI water by weight.
For the oral enzyme solutions, β-glucuronidase was added to the final formulation at a concentration of 57,600 units/ml.
For the intraduodenal and intracolonic dosing, male Sprague Dawley rats weighing 300-400 g were purchased from Charles River Labs. All rat experiments were conducted under approved animal protocols. The rats were catheterized at Charles River Labs and had one or more of the following chronic catheters for dosing and sampling: jugular/carotid, duodenal, and colonic. Rats were limited to only one GI catheter and one vascular catheter. For IV dosing, rats were purchased with jugular and carotid catheters for dosing in the jugular catheter and blood sampling through the carotid catheter. For intraduodenal/intracolonic dosing, rats had one of the GI catheters for dosing and a carotid catheter for blood sampling.
The surgeries were done two weeks prior to start of testing. Rats were fed 4 hours post dose administration. All rats were dosed without anesthesia and sacrificed at the end of the study.
as §1, §2, §3, §4
API3000 with a Turbo Ionspray interface from Applied Biosystems was used for the detection of Compound 1, the internal standard and major metabolites. Electrospray ionization was performed in the positive ion mode heated nebulizer with a temperature of 300° C. LC/MS/MS chromatograms were acquired in MRM (multiple reaction mode). […]

[3] = male, Sprague Dawley, rat, plasma, Compound 1 10 mg/kg intraduodenal with β-glucuronidase
[4] = male, Sprague Dawley, rat, plasma, Compound 1 10 mg/kg intraduodenal without enzyme
[5] = Compound 1 10 mg/kg intraduodenal with β-glucuronidase
[6] = Compound 1 10 mg/kg intraduodenal without enzyme

Q: Which “Plasma level of Compound 1 relative to level of the metabolites” value ([1]; IV administration) does the source give for `COc1cc2c(cc1OC)-c1n[nH]c(Nc3cccc(F)c3)c1C2` [Compound 1, (6,7-dimethoxy-2,4-dihydro-indeno[1,2-c]pyrazol-3-yl)-(3-fluoro-phenyl)-amine] here?
A: 2%

Q: What about the AUC ([1]; Sprague Dawley, rat, plasma, male rats N=4, Compound 1 2 mg/kg IV, read-out: AUC average ± standard deviation) of the same molecule?
A: 345 ± 42 ng·h/mL

Q: What about the C0 ([1]; Sprague Dawley, rat, plasma, male rats N=4, Compound 1 2 mg/kg IV, read-out: C0 (concentration at zero time, by extrapolation)) of the same molecule?
A: 783 ng/mL

Q: And the Cmax ([1]; Sprague Dawley, rat, plasma, male rats N=4, Compound 1 2 mg/kg IV, read-out: Cmax average ± standard deviation)?
A: 783 ± 233 ng/mL

Q: And the concentration at 0.08 h ([1]; Sprague Dawley, rat, plasma, male rats N=4, Compound 1 2 mg/kg IV, retro orbital sinus, 0.08 hrs)?
A: 610 ng/mL

Q: And the concentration at 0.33 h ([1]; Sprague Dawley, rat, plasma, male rats N=4, Compound 1 2 mg/kg IV, retro orbital sinus, 0.33 hrs)?
A: 286 ng/mL

Q: What about the concentration at 1 h ([1]; Sprague Dawley, rat, plasma, male rats N=4, Compound 1 2 mg/kg IV, retro orbital sinus, 1 hr) of the same molecule?
A: 71.3 ng/mL

Q: And the concentration at 2 h ([1]; Sprague Dawley, rat, plasma, male rats N=4, Compound 1 2 mg/kg IV, retro orbital sinus, 2 hrs)?
A: 16.3 ng/mL

Q: And the concentration at 4 h ([1]; Sprague Dawley, rat, plasma, male rats N=4, Compound 1 2 mg/kg IV, retro orbital sinus, 4 hrs)?
A: 1.2 ng/mL

Q: What about the concentration at 8 h ([1]; Sprague Dawley, rat, plasma, male rats N=4, Compound 1 2 mg/kg IV, retro orbital sinus, 8 hrs) of the same molecule?
A: 0 ng/mL

Q: And the concentration at 24 h ([1]; Sprague Dawley, rat, plasma, male rats N=4, Compound 1 2 mg/kg IV, retro orbital sinus, 24 hrs)?
A: 0 ng/mL

Q: And the “Increase in AUC with β-glucuronidase” value ([2]; intraduodenal 10 mg/kg)?
A: 2.9 fold

Q: And the “Increase in AUC with β-glucuronidase” value ([2]; intraduodenal)?
A: 294%

Q: What about the AUC [2, 3] of the same molecule?
A: 177 ± 55 ng·h/mL

Q: What about the Cmax [2, 3] of the same molecule?
A: 129 ± 41 ng/mL

Q: What about the AUC [2, 4] of the same molecule?
A: 60 ± 18 ng·h/mL

Q: And the Cmax [2, 4]?
A: 75 ± 30 ng/mL

Q: What about the concentration at 0 h [2, 3] of the same molecule?
A: 0 ng/mL

Q: And the concentration at 0.25 h [2, 3]?
A: 129 ± 41.4 ng/mL

Q: And the concentration at 0.5 h [2, 3]?
A: 107 ± 26.6 ng/mL

Q: What about the concentration at 1 h [2, 3] of the same molecule?
A: 75.6 ± 35 ng/mL

Q: What about the concentration at 2 h [2, 3] of the same molecule?
A: 21.2 ± 12.5 ng/mL

Q: And the concentration at 3 h [2, 3]?
A: 12.9 ± 4.3 ng/mL

Q: What about the concentration at 4 h [2, 3] of the same molecule?
A: 9.5 ± 3.1 ng/mL

Q: What about the concentration at 5 h [2, 3] of the same molecule?
A: 3.7 ± 6.3 ng/mL

Q: And the concentration at 6 h [2, 3]?
A: 1.7 ± 2.7 ng/mL

Q: And the concentration at 0 h [2, 4]?
A: 0 ng/mL

Q: And the concentration at 0.25 h [2, 4]?
A: 75.2 ± 30.3 ng/mL

Q: What about the concentration at 0.5 h [2, 4] of the same molecule?
A: 55.1 ± 15.5 ng/mL

Q: And the concentration at 1 h [2, 4]?
A: 18.7 ± 5.9 ng/mL

Q: And the concentration at 2 h [2, 4]?
A: 3.2 ± 0.6 ng/mL

Q: What about the concentration at 3 h [2, 4] of the same molecule?
A: 1.5 ± 0.9 ng/mL

Q: And the concentration at 4 h [2, 4]?
A: 1.6 ± 0.7 ng/mL

Q: What about the concentration at 5 h [2, 4] of the same molecule?
A: 0 ng/mL

Q: What about the concentration at 6 h [2, 4] of the same molecule?
A: 0 ng/mL

Q: And the Tmax ([2]; male, Sprague Dawley, rat, plasma, intraduodenal 10 mg/kg, unchanged with or without enzyme)?
A: 30 min

Q: And the “AUC average ± standard deviation 0 to 6 hours” value [2, 5]?
A: 177.4 ± 55.3 ng·h/mL

Q: What about the “Cmax average ± standard deviation” value [2, 5] of the same molecule?
A: 129.4 ± 41.1 ng/mL

Q: And the “AUC average ± standard deviation 0 to 6 hours” value [2, 6]?
A: 60.3 ± 17.8 ng·h/mL

Q: And the “Cmax average ± standard deviation” value [2, 6]?
A: 76.0 ± 29.0 ng/mL
